Data from ChEMBL document CHEMBL1151203, “Phelligridins C-F: cytotoxic pyrano[4,3-c][2]benzopyran-1,6-dione and furo[3,2-c]pyran-4-one derivatives from the fungus Phellinus igniarius” (J Nat Prod, 2004).

How the values were obtained:
Assay type in all cases: functional, cell-based
KETR3 = test: Cytotoxicity against human Ketr3 cells after 96 hrs by MTT assay; details: KETR3, 96 h
A549 = test: Cytotoxicity against human A549 cells after 96 hrs by MTT assay; details: A549, 96 h
BGC-823 = test: Cytotoxicity against human BGC823 cells after 96 hrs by MTT assay; details: BGC-823, 96 h
MCF7 = test: Cytotoxicity against human MCF7 cells after 96 hrs by MTT assay; details: MCF7, 96 h
Bel-7402 = test: Cytotoxicity against human Bel7402 cells after 96 hrs by MTT assay; details: Bel-7402, 96 h
HCT-8 = test: Cytotoxicity against human HCT8 cells after 96 hrs by MTT assay; details: HCT-8, 96 h

Row | Compound | IC50 (KETR3) | IC50 (A549) | IC50 (BGC-823) | IC50 (MCF7) | IC50 (Bel-7402) | IC50 (HCT-8)
1 | CC1=CC(=O)C2(O1)C(c1cc3oc(=O)c4cc(O)c(O)cc4c3c(=O)o1)=Cc1cc(O)c(O)cc12 (stereo not given) [PHELLIGRIDIN E] | > 0.105 µM | 79 µM | 96 µM | 70 µM | 55 µM | > 105 µM
2 | COC1(CC(C)=O)Oc2cc(/C=C/c3ccc(O)c(O)c3)oc(=O)c2/C1=C/c1ccc(O)c(O)c1 (stereo not given) [PHELLIGRIDIN F] | > 0.104 µM | 84 µM | 92 µM | 85 µM | 46 µM | > 104 µM
3 | CC1=CC(=O)C2(O1)c1c(cc(/C=C/c3ccc(O)c(O)c3)oc1=O)OC2c1ccc(O)c(O)c1 (stereo not given) [INOSCAVIN A] | > 0.108 µM | > 108 µM | > 108 µM | > 108 µM | 88 µM | > 108 µM
4 | O=c1oc2cc(/C=C/c3ccc(O)c(O)c3)oc(=O)c2c2cc(O)c(O)cc12 [PHELLIGRIDIN D] | 0.09 µM | 16 µM | > 131 µM | 37 µM | 8 µM | 99 µM
5 | Cc1cc2oc(=O)c3cc(O)c(O)cc3c2c(=O)o1 [PHELLIGRIDIN A] | > 0.192 µM | > 192 µM | 181 µM | 109 µM | 110 µM | > 192 µM
6 | CC[C@@]1(O)C(=O)OCc2c1cc1n(c2=O)Cc2cc3c(CN(C)C)c(O)ccc3nc2-1 [TOPOTECAN] | 0.0049 µM | 3.2 µM | 4.3 µM | 1.8 µM | 1.2 µM | 1.5 µM
7 | O=c1oc2cc(/C=C/c3ccc(O)cc3)oc(=O)c2c2cc(O)c(O)cc12 [PHELLIGRIDIN C] | 0.094 µM | 12 µM | > 137 µM | 72 µM | 10 µM | 126 µM
8 | CC(=O)/C=C(O)/C=C/c1ccc(O)c(O)c1 [HISPOLON] | 0.206 µM | 183 µM | 205 µM | 25 µM | 38 µM | 199 µM
9 | COC(=O)c1c(O)cc(/C=C/c2ccc(O)c(O)c2)oc1=O [PHELLIGRIDIN B] | 0.144 µM | > 164 µM | 146 µM | 143 µM | 50 µM | 139 µM
10 | CC(=O)/C=C/c1ccc(O)c(O)c1 | 0.245 µM | > 280 µM | 243 µM | 141 µM | 153 µM | 227 µM
